{"source": "paper PMC5951806", "about": "“Rapid labelling and covalent inhibition of intracellular native proteins using ligand-directed N-acyl-N-alkyl sulfonamide” (Nature Communications, 2018)", "molecular_target": "T1, staphylococcal nuclease domain-containing protein 1 (SND1) (Homo sapiens, UniProt Q7KZF4)", "T1 sequence (Q7KZF4 1-910)": "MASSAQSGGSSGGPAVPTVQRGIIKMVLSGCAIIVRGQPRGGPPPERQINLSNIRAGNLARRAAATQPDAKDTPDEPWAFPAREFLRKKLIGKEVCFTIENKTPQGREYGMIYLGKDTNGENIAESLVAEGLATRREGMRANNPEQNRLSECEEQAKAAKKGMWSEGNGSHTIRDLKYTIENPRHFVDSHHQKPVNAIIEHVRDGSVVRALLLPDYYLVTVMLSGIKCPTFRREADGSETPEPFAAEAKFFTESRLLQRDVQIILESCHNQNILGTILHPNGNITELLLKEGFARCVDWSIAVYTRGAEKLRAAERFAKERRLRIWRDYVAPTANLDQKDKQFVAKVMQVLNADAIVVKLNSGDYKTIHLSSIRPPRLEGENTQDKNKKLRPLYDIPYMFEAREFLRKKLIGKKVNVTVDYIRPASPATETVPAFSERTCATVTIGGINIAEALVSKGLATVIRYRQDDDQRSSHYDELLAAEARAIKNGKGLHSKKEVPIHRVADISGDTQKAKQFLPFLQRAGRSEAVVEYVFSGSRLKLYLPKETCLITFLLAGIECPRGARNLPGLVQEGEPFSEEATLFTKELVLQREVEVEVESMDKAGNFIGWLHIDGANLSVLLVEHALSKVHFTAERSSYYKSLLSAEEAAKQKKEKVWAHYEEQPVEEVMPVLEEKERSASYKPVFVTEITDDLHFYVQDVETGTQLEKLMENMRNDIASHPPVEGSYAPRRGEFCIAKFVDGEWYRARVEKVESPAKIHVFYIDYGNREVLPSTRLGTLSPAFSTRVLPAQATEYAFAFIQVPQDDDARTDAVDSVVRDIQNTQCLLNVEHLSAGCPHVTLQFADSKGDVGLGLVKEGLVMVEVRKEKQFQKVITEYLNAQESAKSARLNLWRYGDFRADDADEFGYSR", "test": "TMT LC-MSMS of 11-labelled proteins", "type": "cell-based", "data": [{"compound": "CC(=O)Oc1ccc2c(c1)Oc1cc(OC(C)=O)ccc1C21OC(=O)c2cc(C(=O)NCCOCCOCCNC(=O)CCCC(=O)N(CC#N)S(=O)(=O)c3ccc(C(=O)NCCCn4c(Sc5cc6c(cc5I)OCO6)nc5c(N)ncnc54)cc3)ccc21", "note": "[compound 11]", "values": [{"measurement": "Abundance Ratio: (11) / (11 with PU-H71)", "setting": "Exp3, SND1", "result": 0.662}, {"measurement": "Abundance Ratio: (11) / (DMSO)", "setting": "Exp3, SND1", "result": 1.871}, {"measurement": "Abundances (Grouped): 11", "setting": "Exp3, SND1", "result": 30.5}, {"measurement": "Abundances (Grouped): 11 with PU-H71", "setting": "Exp3, SND1, with PU-H71", "result": 46.1}, {"measurement": "Abundance Ratio: (11) / (DMSO)", "setting": "sheet Exp1, SKBR3 cells, 11 0.5 µM 3 h vs DMSO", "result": 2.172}, {"measurement": "Abundance Ratio: (11) / (11 with PU-H71)", "setting": "sheet Exp1, SKBR3 cells, 11 0.5 µM 3 h vs with PU-H71 10 µM", "result": 0.838}, {"measurement": "Abundance Ratio: (11) / (DMSO)", "setting": "sheet Merged, SKBR3 cells, 11 0.5 µM 3 h vs DMSO", "result": 2.016}, {"measurement": "Abundance Ratio: (11) / (11 with PU-H71)", "setting": "sheet Merged, SKBR3 cells, 11 0.5 µM 3 h vs with PU-H71 10 µM", "result": 0.745}]}]}
